Measured values published in patent publication US20070037800A1, “Method of treating neurological disorders using clotrimazole and derivatives thereof” (EnVivo Pharmaceuticals, Inc., priority 2005, published 2007).
Values joined by “and” are separate entries in the source; they are usually repeats but may differ in a detail not shown here. Identical values can stand only once.

Columns and labels:
[1] = tested on: R6/2 mice; assay: Cage climbing and rearing in R6/2 mice; assay type: in vivo, mouse; details: for Cage climbing: 12 weeks
Excerpt: Cage climbing analysis involves filming a 10cm tall cylindrical cage into which an R6/2 (+/−drug) or WT mouse is placed. The mouse is allowed to move naturally ad libetum for a five minute session within the confines of the cage, while events such as rearing occurrences, climbing time and latency to climb are documented. Cage climbing and rearing data were collected at 12 weeks in this study.

[2] = tested on: HD model flies (elav-GAL4 UAS-htt128Q); assay: Assay of locomotor activity (climbing speed) using the transgenic Drosophila HD model; assay type: in vivo; design: Early Speed Effect Size, Summary / Late Speed Effect Size, Summary / Early Speed Effect Size / Late Speed Effect Size / Early Speed Adj Value / Late Speed Adj Value / Early Speed Effect Size, combined campaigns / Late Speed Effect Size, combined campaigns: unit not given here; details: for Early Speed Effect Size, combined campaigns / Early Speed Percent TSA, combined campaigns / Early Speed Effect Size / Early Speed Adj Value / Early Speed Percent TSA: days 1 to 7; for Early Speed Effect Size, combined campaigns / Early Speed Percent TSA, combined campaigns / Late Speed Effect Size, combined campaigns / Late Speed Percent TSA, combined campaigns: drawing 84; for Late Speed Effect Size, combined campaigns / Late Speed Percent TSA, combined campaigns / Late Speed Percent TSA / Late Speed Adj Value / Late Speed Effect Size: days 8 to 10; for Early Speed Effect Size, Summary / Early Speed Percent TSA, Summary: days 1-7; for Late Speed Effect Size, Summary / Late Speed Percent TSA, Summary: days 8-10; for Early Speed Effect Size: food conc 50 (unit not printed; b38: μM); for Early Speed Effect Size / Late Speed Effect Size: vs DMSO carrier; for Early Speed Effect Size / Early Speed Adj Value / Early Speed Percent TSA / Late Speed Percent TSA / Late Speed Adj Value / Late Speed Effect Size: single campaigns; for Early Speed Percent TSA: effect size as percentage of positive control TSA; for Late Speed Percent TSA: effect size as percentage of TSA
Protocol: Female “activator” or “driver” flies were engineered to contain the neuronal specific drivers elav-GAL4 or nirvana-GAL4 in a heat shock-hid Y (phs-hidY or HS-hid+ on Y chomosome) background (Starz-Gaiano et al., 2001). The hid gene is a pro-apoptotic gene, which is expressed in this line by a heat inducible promoter. These flies can be heat shocked in bottles twice over 2 days for 2 hours to kill male larvae and thereby produce massive numbers of elav-GAL4 or nirvana-GAL4 virgin females.
For the mass production of males (either UAS-htt128Q[F27B]/UAS-htt128Q[F27B], the disease transgenes were moved into lines that contain an attached X-chromosome with the same phs-hid element (X^XPhs-hidY) used above. In this scheme the hid gene is present only in female flies and therefore is used to produce large numbers of male flies by heat shock. The massive collection of virgin female elav-GAL4 flies are crossed with the massive collection of males that contain the silent disease-transgene. Their progeny, the F1 generation, are the “assay flies” (e.g., elav-GAL4UAS-htt128Q[F27B]). These assay flies are robotically distributed into drugged assay vials.
The HD Drosophila model express exons 1 to 4 of the human huntingtin gene with 128Q repeats in exon 1. The construct was cloned into the Drosophila transformation vector, pUAST. These were then crossed to GAL4 driver lines that direct expression either to the eye (GMR-GAL4 promoter) or to neurons (elav-GAL4 promoter). […] Progressive degeneration of the photoreceptors was observed after several days of adult life. The properties of the HD128Q flies were consistent with those reported by others for two other strains in which exon-1 containing expanded repeats was expressed in the eye (Jackson et al., 1998; Steffan et al., 2001—US20040142859). To test the effects on motor function of the HD mutation, HD128Q lines were examined in which the transgene was expressed in all neurons. Motor function was assayed by tapping flies in a vial to the bottom and measuring the number of flies that are able to climb to a specified height within a specific length of time. When tapped to the bottom of a vial, wild-type flies rapidly climb to the top, where most of them remain. […] The decline in motor performance was progressive, leading to early death. […] The HD128Q model thus has a functional deficit that in its phenotypic and neuropathological characteristics appears to be related to that seen in the human disease. Moreover, as the deficit is quantifiable and reproducible, it is suitable for automated high-throughput screening.
Standard environmental conditions were followed to establish that different metrics detect differences between disease and control flies. A comparison of compound-treated HD flies and untreated HD flies was also included. The positive control compound tested was the Histone Deacetylase (HDAC) inhibitor Trichostatin-A (TSA).
In an assay run (typically corresponding to one day of an entire multi-day assay) the following process was followed. Each tube was dropped onto a surface, causing the flies to fall to the bottom of the tube and be subjected to impact shock stimulation. Their immediate negative geotaxis response to that event was thereafter captured in a 7.5 second movie. For each tube, this step was repeated five times, giving a total of five repeat videos per tube and run. The raw data for each video were analyzed and trajectories following the movements of individual flies in a tube were generated. The method for analyzing fly trajectories is described in published U.S. Patent Application 2004/0076318A1, which is hereby incorporated by reference in its entirety. The trajectories consisted of a list of x- and y-coordinates mapping out the positions of all the flies in the video, as well as measurements of size, orientation, length and width of the flies, with one list entry for every frame from when the fly started moving in one frame until it stopped in another. […]

[3] = conc 50, campaigns drawing 83, drawing 85
[4] = conc 100, campaigns drawing 74, drawing 76, drawing 83, drawing 89
[5] = conc 150, campaigns drawing 83, drawing 86, drawing 88, drawing 89
[6] = dose 50, weighted average of campaigns drawing 83, drawing 84 (Table 1)
[7] = dose 100, weighted average of campaigns drawing 74, drawing 76, drawing 83, drawing 84 (Table 1)
[8] = dose 150, weighted average of campaigns drawing 83, drawing 84 (Table 1)
[9] = food conc 50, listed as CLOTRIMAZOLE

## Clc1ccccc1C(c1ccccc1)(c1ccccc1)n1ccnc1 [clotrimazole]
[1]; 4 mg/kg (low dose)
  Cage climbing: Statistically significant improvement
[1]; 20 mg/kg (high dose)
  Cage climbing: Statistically significant improvement
[1]; 4 and 20 mg/kg dosing, preliminary data
  Motor performance by cage climbing and rearing: significantly improved the motor performance
[2]; [3]
  Early Speed Effect Size, combined campaigns: 0.867
  Early Speed Percent TSA, combined campaigns: 37.7%
  Late Speed Effect Size, combined campaigns: 1.076
  Late Speed Percent TSA, combined campaigns: 36.3%
[2]; [4]
  Early Speed Effect Size, combined campaigns: 0.89
  Early Speed Percent TSA, combined campaigns: 32%
  Late Speed Effect Size, combined campaigns: 1.372
  Late Speed Percent TSA, combined campaigns: 36.8%
[2]; [5]
  Early Speed Effect Size, combined campaigns: 1.211
  Early Speed Percent TSA, combined campaigns: 43.8%
  Late Speed Effect Size, combined campaigns: 1.664
  Late Speed Percent TSA, combined campaigns: 42.8%
[2]; [6]
  Early Speed Effect Size, Summary: 0.8
  Early Speed Percent TSA, Summary: 25.9%
  Late Speed Effect Size, Summary: 1.43
  Late Speed Percent TSA, Summary: 35.7%
[2]; [7]
  Early Speed Effect Size, Summary: 1.13
  Early Speed Percent TSA, Summary: 39.6%
  Late Speed Effect Size, Summary: 1.42
  Late Speed Percent TSA, Summary: 39.6%
[2]; [8]
  Early Speed Effect Size, Summary: 1.35
  Early Speed Percent TSA, Summary: 41.6%
  Late Speed Effect Size, Summary: 1.8
  Late Speed Percent TSA, Summary: 42.7%
[2]; doses 50, 100, 150 (Table 1)
  Climbing assay, dose dependence: dose-dependent effect
[2]
  Early Speed Effect Size: 0.73 and 0.88
[2]; listed as CLOTRIMAZOLE
  Early Speed Effect Size: 0.725 and 0.882 and 0.932
[2]; food conc 50 (μM)
  Early Speed Adj Value: 11.2 and 10.98 and 10.15
[2]; food conc 50
  Early Speed Percent TSA: 26.3% and 25.4%
  Late Speed Percent TSA: 38.8% and 31.5%
  Late Speed Adj Value: 6.587 and 5.802 and 6.193
  Late Speed Effect Size: 1.46 and 1.39
[2]; [9]
  Early Speed Percent TSA: 26.3% and 25.4% and 48.8%
  Late Speed Percent TSA: 38.8% and 31.5% and 36.8%
  Late Speed Effect Size: 1.458 and 1.39 and 0.767
[2]; food conc 100 (μM)
  Early Speed Adj Value: 10.12 and 11.32 and 11.4873 and 10.63 and 10.84
[2]; food conc 100
  Late Speed Adj Value: 5.805 and 5.534 and 6.208 and 6.981 and 6.155
[2]; food conc 150 (unit not given)
  Early Speed Adj Value: 11.15 and 11.68 and 10.57 and 10.74 and 11.13
[2]; food conc 150
  Late Speed Adj Value: 6.189 and 6.817 and 5.855 and 5.983 and 6.595
[2]; vs carrier controls, metrics early speed (days 1-7) and late speed (days 8-10)
  Effect in Drosophila model of HD: reproducible positive effects
